# What was measured:
# [1] = system: BDNF; assay: BDNF content in pons of STZ diabetic neuropathy model rats; type: in vivo, SD rats; details: 10 mg/kg body weight/day orally for 1 month
# Protocol: (§1) A diabetic neuropathy model was made by injecting streptozotocin (STZ) into the tail vein of male 6-week-old SD rats in a dose of 70 mg/kg body weight. After 4 weeks, 0.1 to 3 mg/kg body weight of compound (5) was orally administered for 4 weeks, and each tissue was collected. The collected tissue was supplemented with 25 to 40 times of disruption buffer (0.1 M Tris-hydrochloride buffer, pH 7.6, containing 1 M sodium chloride, 2% BSA, 2 mM EDTA, 80 trypsin units/L of aprotinin and 0.02% sodium azide) in terms of the wet tissue weight, which was subjected to sonication. After 30 minutes of centrifugation at 15,000 rpm, the supernatant was used as the sample and the NGF and BDNF contents were determined in the same manner as in Experimental Example 1.
# (§2) A diabetic neuropathy model was made by injecting streptozotocin (STZ) into the tail vein of male 6-week-old SD rats in a dose of 70 mg/kg body weight. […]
# (§3) While, the pons were collected from brain stem to determine the contents of neurotrophic factors. The BDNF contents were determined in the similar manner as in Experimental Example 2. The NT-3 contents were determined in the similar manner as in Experimental Example 2 except that an anti-NT-3 antibody (Brain Res. 1994, 12, pp. 143-146; Clin Chim Acta 1994, 227, pp. 23-36) was used.
# [2] = system: NGF; assay: NGF content in peripheral and brain tissues of STZ diabetic neuropathy model rats; type: in vivo, SD rats
# Protocol: (§4) The culture fluid obtained in each run of Reference Example 1A was recovered and assayed for the neurotrophin content therein. NGF was assayed by the enzyme immunoassay method described by Murase et al. in Biochemistry International, vol. 22, p. 807 (1990). Thus, an anti-NGF antibody (100 μg/ml) (antibody obtained by using mouse NGF as the antigen and immunizing New Zealand albino rabbits therewith) was distributed in 10-μl portions in the wells of 96-well round bottom plates and antibody adsorption was allowed to proceed by 2 hours standing at room temperature. After removing the antibody, each well was washed three times with a washing solution. A 10-μl portion of the above recovered culture fluid or standard NGF solution was placed in each well and the plates were allowed to stand at room temperature for 2.5 hours. After three times washings of each well, 20 μl of biotinylated anti-NGF antibody (35 ng/ml) was added thereto, followed by overnight standing at 4° C. […] After washing, 30 μl of 4-methylumbelliferyl-β-D-galactoside (produced by Sigma) (10 μg/μl) was added to the substrate, the reaction was allowed to proceed at room temperature for 4 hours and then terminated by addition of 130 μl of 0.1 M glycine-sodium hydroxide buffer (pH 10.3), and the fluorescent intensity of the 4-methylumbelliferone produced was determined (Ex: 360 nm; Em: 450 nm). The amount of NGF was calculated based on a standard curve and expressed in terms of relative multiplicity in relation to the amount of NGF (control) produced and secreted by cells treated in the same manner without adding the test compound. […]
# (§5) A diabetic neuropathy model was made by injecting streptozotocin (STZ) into the tail vein of male 6-week-old SD rats in a dose of 70 mg/kg body weight. […] After 30 minutes of centrifugation at 15,000 rpm, the supernatant was used as the sample and the NGF and BDNF contents were determined in the same manner as in Experimental Example 1.
# [3] = system: diabetic neuropathy model; assay: Sensory nerve conduction velocity in STZ diabetic neuropathy model rats; type: in vivo, SD rats; details: 10 mg/kg body weight/day orally for 4 months
# Protocol: A diabetic neuropathy model was made by injecting streptozotocin (STZ) into the tail vein of male 6-week-old SD rats in a dose of 70 mg/kg body weight. After 4 moths of housing, 10 mg/kg body weight/day of compound (5) which was suspended in 0.5% (w/v) methylcellulose was orally administered for 4 months. After administration, the rats were anesthetized with pentobarbital and the body temperature of the rats were kept 37° C. using a hotplate heated and an electric lamp. Then, conduction velocities of motor nerves and sensory nerves were determined using an induction potential test device (Neuropack 2, produced by Nihon Kohden) in the following manner. Proximal or distal positions of the sural nerve of the rats were stimulated at, in principle, 0.8 mA and the potential was recorded at the plantar skin. The sensory nerve conduction velocity was calculated from the distance and latencies of the two different stimulating sites.
# [4] = system: BDNF; assay: BDNF content in peripheral and brain tissues of STZ diabetic neuropathy model rats; type: in vivo, SD rats
# Protocol: as §4, §5
# [5] = system: NT-3; assay: NT-3 content in pons of STZ diabetic neuropathy model rats; type: in vivo, SD rats; details: 10 mg/kg body weight/day orally for 1 month
# Protocol: as §1, §2, §3
# [6] = system: NGF; assay: NGF production/secretion promoting activity in cultured Schwann cells (enzyme immunoassay of culture fluid); type: cell-based, SD rats; details: 24 hours, concentrations of 10^−4 M to 10^−8 M, result in words
# Protocol: Schwann cells were prepared by subjecting the dorsal spinal root ganglion collected from 10 newborn SD rats to enzyme treatment using 0.25% trypsin containing 0.01% deoxyribonuclease (DNase, produced by Sigma), followed by cloning from the cell group obtained. […]
# The culture fluid obtained in each run of Reference Example 1A was recovered and assayed for the neurotrophin content therein. […] After washing, 30 μl of 4-methylumbelliferyl-β-D-galactoside (produced by Sigma) (10 μg/μl) was added to the substrate, the reaction was allowed to proceed at room temperature for 4 hours and then terminated by addition of 130 μl of 0.1 M glycine-sodium hydroxide buffer (pH 10.3), and the fluorescent intensity of the 4-methylumbelliferone produced was determined (Ex: 360 nm; Em: 450 nm). The amount of NGF was calculated based on a standard curve and expressed in terms of relative multiplicity in relation to the amount of NGF (control) produced and secreted by cells treated in the same manner without adding the test compound. […]
# [7] = system: diabetic neuropathy model; assay: Hyperalgesia test (pressure-stimulant algesiometer, pain threshold of hind-limb) in STZ diabetic neuropathy model rats; type: in vivo, SD rats; details: 10 mg/kg body weight/day orally for 1 month
# Protocol: A diabetic neuropathy model was made by injecting streptozotocin (STZ) into the tail vein of male 6-week-old SD rats in a dose of 70 mg/kg body weight. After 4 months of housing, 10 mg/kg body weight/day of compound (5) which was suspended in 0.5% (w/v) methylcellulose was orally administered for 1 month. After administration, a hvderalgesia test was conducted using a pressure-stimulant algesiometer (produced by Ugo Basil) to determine the pain threshold of hind-limb.
# [8] = system: BDNF; assay: BDNF production/secretion promoting activity in cultured Schwann cells (enzyme immunoassay of culture fluid); type: cell-based, SD rats; details: 24 hours, concentrations of 10^−4 M to 10^−8 M, result in words
# [9] = system: diabetic neuropathy model; assay: Motor nerve conduction velocity in STZ diabetic neuropathy model rats; type: in vivo, SD rats; details: 10 mg/kg body weight/day orally for 4 months
# Protocol: A diabetic neuropathy model was made by injecting streptozotocin (STZ) into the tail vein of male 6-week-old SD rats in a dose of 70 mg/kg body weight. After 4 moths of housing, 10 mg/kg body weight/day of compound (5) which was suspended in 0.5% (w/v) methylcellulose was orally administered for 4 months. After administration, the rats were anesthetized with pentobarbital and the body temperature of the rats were kept 37° C. using a hotplate heated and an electric lamp. Then, conduction velocities of motor nerves and sensory nerves were determined using an induction potential test device (Neuropack 2, produced by Nihon Kohden) in the following manner. Needle electrodes were placed at the thigh or the ankle of the rats. Then, the sciatic nerve or the tibial nerve was stimulated at, in principle, 1.6 mA and the action potential was recorded from the plantar muscle. The motor nerve conduction velocity was calculated from the distance and latencies of the two different stimulating sites.
# [10] = pons, Mean ± SD (n = 10), **: p < 0.01 vs STZ group
# [11] = 0.1 to 3 mg/kg body weight orally for 4 weeks, hippocampus, Mean ± SD (n = 8 to 9), *: p < 0.05 vs STZ group
# [12] = 0.1 to 3 mg/kg body weight orally for 4 weeks, sciatic nerve, Mean ± SD (n = 8 to 9), *: p < 0.05 vs STZ group
# [13] = Mean ± SD (n = 5 to 8), **: p < 0.01 vs STZ group
smiles,measurement,setting,value
"Cc1ccccc1OCCCc1oc(-n2ccnc2C)nc1-c1ccc(Cl)cc1 [Compound (5), 4-(4-chlorophenyl)-2-(2-methyl-1-imidazolyl)-5-[3-(2-methylphenoxy)propyl]oxazole]",BDNF (pg/g tissue),[1]; [10],4151 ± 1161** pg/g tissue
same,"amount of BDNF in pons, effect versus STZ group",[1]; result in words,increased
same,NGF (pg/g tissue) Hippocampus,[2]; [11],738 ± 105* pg/g tissue
same,NGF (pg/g tissue) Sciatic nerve,[2]; [12],495 ± 143* pg/g tissue
same,NGF production/secretion promoting activity at the sciatic nerve and the hippocampus,"[2]; oral, 4 weeks, result in words",excellent
same,SNCV (m/s),[3]; [13],41.1 ± 7.9** m/s
same,"sensory nerve conduction velocity, effect versus STZ group",[3]; result in words,recovered
same,BDNF (ng/g tissue) Hippocampus,[4]; [11],3.5 ± 0.3* ng/g tissue
same,BDNF (ng/g tissue) Sciatic nerve,[4]; [12],5.0 ± 0.6* ng/g tissue
same,BDNF production/secretion promoting activity at the sciatic nerve and the hippocampus,"[4]; oral, 4 weeks, result in words",excellent
same,NT-3 (pg/g tissue),[5]; [10],352 ± 118** pg/g tissue
same,"amount of NT-3 in pons, effect versus STZ group",[5]; result in words,increased
same,NGF production/secretion promoting activity,[6],excellent
same,Pain threshold (g),"[7]; hind-limb, Mean ± SD (n = 10), **: p < 0.01 vs STZ group",109 ± 19** g
same,"hyperalgesia, effect versus STZ group",[7]; result in words,ameliorated
same,BDNF production/secretion promoting activity,[8],excellent
same,MNCV (m/s),[9]; [13],54.9 ± 7.6** m/s
same,"motor nerve conduction velocity, effect versus STZ group",[9]; result in words,recovered

# — patent US7396848B1, “Neurotrophin production/secretion promoting agent” (Takeda Pharmaceutical Company Limited, priority 2000, dated 2008)
